Where two headings read alike, the source gives them in different places.
Legend:
[1] = Cellular toxicity of PPV derivatives by trypan blue; type: cell-based; details: 10 uM, 72 h
Description: FIGS. 7A-7D show OCR and cellular toxicity data. […]. Bars represent mean OCR and PDE10 inhibitory activities from at least 5 (OCR) or 3 (PDE) replicates. All experiments were repeated at least twice. […] Values are mean+−SEM.
Experimental: Cell lines. All cell lines were purchased from the American Type Culture Collection (ATCC) and grown DMEM (Corning) supplemented with 10% FBS (Seradigm) and 1% Penicillin/Streptomycin (Fisher Bioreagents) at 37° C. in 5% CO2. Cells were treated with inhibitors papaverine hydrochloride (Sigma-Aldrich), rotenone (Sigma-Aldrich), piericidin A (Santa Cruz), capsaicin (Sigma-Aldrich), antimycin A (Sigma-Aldrich) and succinic acid disodium salt (Sigma-Aldrich). Cell viability was assessed by trypan blue exclusion.

EO771 cells = type: cell-based, Murine; details: for competition with rotenone on OCR: PPV given before rotenone; for inhibition of oxygen consumption (OCR), effective concentration (words): real time Seahorse XF dose response
Description: Error bars represent standard deviation.
FIGS. 2A-2D are OCR measurements and cell viability assessments. FIG. 2A-2B are representative of OCR measurement in competition assay between PPV and complex I inhibitors piericidin A (FIG. 2A) and capsaicin (FIG. 2B). Values represent the means+−SD. […] Bar charts represent mean of viable cells in duplicates+−standard deviation.
(§1) Seahorse analysis of the OCR. Oxygen consumption rate (OCR) was measured using Seahorse XF96 Flux Analyzer (Agilent Technologies). The cells were seeded to attach overnight, wells were washed with pre-warmed XF Calibrant (Agilent Technologies) and the replaced with unbuffered Assay Medium (pH 7.4, 5 mM glucose, 1 mM L-glutamine). The plates were incubated at 37° C. in a CO2-free incubator for 2 hours prior to assay. For succinate rescue assay, cells were permeabilized using XF Plasma Membrane Permeabilizer Reagent (XF PMP, Agilent Technologies) according to the manufacturer's instructions. The OCR rate was measured in 1× Mitochondrial Assay Solution (MAS) (70 mM sucrose, 220 mM mannitol, 10 mM KH2PO4, 5 mM MgCl2, 2 mM Hepes, 0.6% (w/v) fatty acid-free BSA and 1 mM EGTA; pH 7.4). After baseline oxygenation was established, 1 μM rotenone or 10 μM PPV was injected at time A, followed by 5 mM succinate at time B. Error bars represent standard deviation. For the washout experiment, EO771 cells were seeded overnight, then treated with 10 μM PPV or 1 μM rotenone 3 hours prior to OCR measurement. Media was replaced 1 and 2 hours before measurement and OCR reported.

[2] = tested on: oxygen consumption (mitochondrial function); experiment: Seahorse XF analysis of oxygen consumption in vitro, cell line not stated; type: cell-based
Description: as §1

[3] = tested on: A549 NDUFV1 KO NDI1 cells; type: cell-based, Human; details: 10 μM papaverine or 1 μM rotenone
[4] = tested on: NDUFV1 KO NDI1 flank tumors; experiment: Pimonidazole staining, NDUFV1 KO NDI1 flank tumors; type: in vivo, mice; details: 2 mg/kg PPV
Description: FIGS. 5A-5E show papaverine radiosensitizes through complex I inhibition. […] Values represent mean viable cells+−SD. […] Values are mean+−SD. […] P value was calculated with two-tailed two-sample t test. […] Curves represent mean tumor volumes+−SEM.
Pimonidazole staining. Pimonidazole adducts were visualized in hypoxic regions within histological sections of tumor tissues (Kizaka-Kondoh, S. et al. Cancer science 100, 1366-1373 (2009)). Immune-deficient mice bearing EO771 and A549 flank xenografts were treated with 2 mg/kg PPV or saline and 60 mg/kg pimonidazole administered I.P. at 30 minutes and tumors harvested at 90 minutes. Tumor sections were stained with anti-pimonidazole rabbit antisera and anti-rabbit Alexa Fluor 488 secondary antibody. The hypoxic fraction of each tumor was quantified by thresholding signal at 50% of the maximum signal on control sections. Area covered by pimonidazole-positive cells was evaluated from 20 images per animal and averaged. Error bars represent the standard deviation.

C57BL/6 mice = experiment: Acute toxicity, IV to isoflurane-anesthetized mice
Description: Bar graphs represent the mean area covered by pimonidazole-positive cells evaluated from 20 images per animal+−standard error of the mean. P value was calculated against control with two-tailed two-sample t test. […] Mean volumes+−SEM. P values were calculated against XRT with two-tailed two-sample t test. *P<0.05; **P<0.01; ***P<0.001; ****P<0.0001; n.s., not significant.
Reducing any possible adverse effects of PPV given to cancer patients if it is being used as a radiosensitizer are needed. PDE10A inhibition can cause systemic vascular effects which can result in a drop in blood pressure and increase in heart rate as vessels become more compliant. This acute drop in blood pressure produces a physiological compensation where the individual's heart rate and breathing rate rise to maintain tissue perfusion. If the effect on systemic vasculature was too great, this could lead to cardiovascular collapse and rapid death. Acute toxicity of PPV, SMV23 and SMV32 given IV to mice under anesthesia with 2% isoflurane was determined. Isoflurane delivered in medical air was used so that the effects on tumor oxygenation was reduced, although isoflurane can depress respiration and is typically given in 100% oxygen.

MP2 tumors = experiment: ODD-luciferase in vivo oxygen reporter (bioluminescence imaging); design: species or system mice; details: orthotopic MP2 CMVluc tumors
From the text: FIGS. 14A-14E summarize results obtained using ODD-luciferase as an in vivo oxygen reporter. […] (n=3-4, P<0.05).
Use of ODD-luciferase as an in vivo oxygen reporter. We have fused the oxygen dependent degradation domain (ODD) of the HIF1a protein to the luciferase reporter protein. This fusion protein is expressed in tumor cells and is stable and reports well in hypoxia, but is destroyed by cellular machinery when cells are well oxygenated (FIG. 14A). These cells were used to grow tumors in immune-deficient mice and the animals were exposed either 95% oxygen/5% CO2 (carbogen) or medical air and the tumor bioluminescence imaged by IVIS 30 minutes post injection. Increasing oxygen breathing decreases reporter signal (FIG. 14B). These animals were then treated with either papaverine or vehicle (FIG. 14C) or SMV32 or vehicle (FIG. 14E).

[5] = cited from earlier work

SMILES | cellular toxicity in vitro [1] | efficiency at rotenone binding pocket relative to rotenone (EO771 cells) | competition with rotenone on OCR (EO771 cells) | competition with rotenone on OCR (EO771 cells; listed as papaverine) | interaction with complex 1 inhibitors piericidin A or capsaicin (EO771 cells; competition assay) | inhibition of oxygen consumption (OCR), effective concentration (words) (EO771 cells) | inhibition of oxygen consumption (OCR), effective concentration (words) (EO771 cells; listed as Papaverine) | inhibition of oxygen consumption / mitochondrial function in vitro [2] | response of mitochondria (OCR) to drug [3] | hypoxic fraction by pimonidazole [4] | time to death after delivery (C57BL/6 mice; 6 mg/kg IV bolus) [min] | Survivors (C57BL/6 mice; 6 mg/kg IV, 2% isoflurane in medical air) | acute toxicity (C57BL/6 mice; rapid 6 mg/kg IV bolus, isoflurane-anesthetized mice) | CMV luciferase (non-hypoxia responsive) control signal (MP2 tumors) | expected half-life ([5]; Ritschel et al.) [h] | half-life, cleared from the serum ([5]; in vivo) [h]
COc1cc2ccnc(Cc3cccc4ccccc34)c2cc1OC [SMV-32] | Neither of these compounds shows cellular toxicity | – | – | – | – | – | – | – | – | – | – | – | – | – | – | –
COc1ccc(Cc2nccc3cc(OC)c(OC)cc23)cc1OC [PPV, papaverine] | – | approximately 100 × lower efficiency | block the activity of the classical complex 1 inhibitor rotenone | blocked rotenone's inhibitory activity | no interaction | effective at low micromolar concentrations | rapidly inhibited oxygen consumption at low micromolar concentrations | effective at inhibiting oxygen consumption | resistant | no decrease of the hypoxic fraction | ≤ 5 | 0/3 | toxic, with significant gasping of mice, convulsions and death | did not show any change | 1.5 to 2 | 1.5 to 2
